Measured values taken from ChEMBL document CHEMBL1201861, “Genomics of Drug Sensitity in Cancer screening data, Wellcome Trust Sanger Institute”.

Columns and labels:
Assay in all cases: cells
[1] = system: COR-L23; format: functional, cell-based; conditions: Homo sapiens;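 note: cell viability assay measuring how strongly compounds suppress growth of COR-L23 cells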
Description: SANGER: Inhibition of human COR-L23 cell growth in a cell viability assay.

[2] = system: CaR-1; format: functional, cell-based; conditions: Homo sapiens;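 note: growth inhibition of human CaR-1 cancer cells, read out with a cell viability assay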
Description: SANGER: Inhibition of human CaR-1 cell growth in a cell viability assay.

[3] = system: Daoy; format: functional, cell-based; conditions: Homo sapiens;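 note: daoy cell growth inhibition, read out as cell viability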
Description: SANGER: Inhibition of human Daoy cell growth in a cell viability assay.

[4] = system: EFO-27; format: functional, cell-based; conditions: Homo sapiens;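 note: growth inhibition of EFO-27 cells, read out with a cell viability assay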
Description: SANGER: Inhibition of human EFO-27 cell growth in a cell viability assay.

[5] = system: FaDu; format: functional, cell-based; conditions: Homo sapiens;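 note: cell viability readout of growth inhibition in FaDu cells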
Description: SANGER: Inhibition of human FADU cell growth in a cell viability assay.

[6] = system: HCC1599; format: functional, cell-based, Homo sapiens; conditions: Homo sapiens, HCC1599;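 note: growth inhibition of HCC1599 cells, read out in a cell viability assay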
Description: SANGER: Inhibition of human HCC1599 cell growth in a cell viability assay.

[7] = system: HCC1806; format: functional, cell-based; conditions: Homo sapiens;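 note: growth inhibition of the cancer cell line, determined with a cell viability assay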
Description: SANGER: Inhibition of human HCC1806 cell growth in a cell viability assay.

[8] = system: HCT-15; format: functional, cell-based; conditions: Homo sapiens;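 note: cell viability readout, IC50 reflecting suppression of HCT-15 cell growth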
Description: SANGER: Inhibition of human HCT-15 cell growth in a cell viability assay.

[9] = system: Kasumi 1; format: functional, cell-based, Homo sapiens; conditions: Homo sapiens, Kasumi 1;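 note: growth inhibition of human Kasumi-1 cells, read out by a cell viability assay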
Description: SANGER: Inhibition of human KASUMI-1 cell growth in a cell viability assay.

[10] = system: KYSE-140; format: functional, cell-based; conditions: Homo sapiens;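 note: cell viability assay measuring growth inhibition in human KYSE-140 cells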
Description: SANGER: Inhibition of human KYSE-140 cell growth in a cell viability assay.

[11] = system: KYSE-180; format: functional, cell-based; conditions: Homo sapiens;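 note: growth inhibition of KYSE-180 cells, read out with a cell viability assay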
Description: SANGER: Inhibition of human KYSE-180 cell growth in a cell viability assay.

[12] = system: KYSE-270; format: functional, cell-based; conditions: Homo sapiens;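 note: cell growth inhibition measured with a viability assay in the human KYSE-270 line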
Description: SANGER: Inhibition of human KYSE-270 cell growth in a cell viability assay.

[13] = system: LB373-MEL-D; format: functional, cell-based, Homo sapiens; conditions: Homo sapiens, LB373-MEL-D;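 note: growth inhibition of the cell line, read out in a cell viability assay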
Description: SANGER: Inhibition of human LB373-MEL-D cell growth in a cell viability assay.

[14] = system: LOUCY; format: functional, cell-based, Homo sapiens; conditions: Homo sapiens, LOUCY;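 note: growth inhibition of human LOUCY cells, read out with a cell viability assay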
Description: SANGER: Inhibition of human LOUCY cell growth in a cell viability assay.

[15] = system: LP-1; format: functional, cell-based, Homo sapiens; conditions: Homo sapiens, LP-1;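 note: growth inhibition of human LP-1 cells, with the read-out taken from a cell viability assay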
Description: SANGER: Inhibition of human LP-1 cell growth in a cell viability assay.

[16] = system: LU-165; format: functional, cell-based, Homo sapiens; conditions: Homo sapiens, LU-165
Description: SANGER: Inhibition of human LU-165 cell growth in a cell viability assay.

[17] = system: MC-CAR; format: functional, cell-based, Homo sapiens; conditions: Homo sapiens, MC-CAR;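 note: growth inhibition of the human MC-CAR cell line, read out by a cell viability assay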
Description: SANGER: Inhibition of human MC-CAR cell growth in a cell viability assay.

[18] = system: MDA-MB-453; format: functional, cell-based; conditions: Homo sapiens
Description: SANGER: Inhibition of human MDA-MB-453 cell growth in a cell viability assay.

[19] = system: MKN-28; format: functional, cell-based; conditions: Homo sapiens;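 note: cell viability assay read-out, IC50 reflects suppression of growth of human MKN-28 cells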
Description: SANGER: Inhibition of human MKN28 cell growth in a cell viability assay.

[20] = system: NALM-6; format: functional, cell-based, Homo sapiens; conditions: Homo sapiens, NALM-6;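 note: growth inhibition of NALM-6 cells, read out with a cell viability assay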
Description: SANGER: Inhibition of human NALM-6 cell growth in a cell viability assay.

[21] = system: NCI-H1522; format: functional, cell-based, Homo sapiens; conditions: Homo sapiens, NCI-H1522;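 note: growth inhibition of NCI-H1522 cells, read out with a cell viability assay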
Description: SANGER: Inhibition of human NCI-H1522 cell growth in a cell viability assay.

[22] = system: NCI-H1563; format: functional, cell-based; conditions: Homo sapiens;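 note: growth inhibition of human NCI-H1563 cells, read out with a cell viability assay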
Description: SANGER: Inhibition of human NCI-H1563 cell growth in a cell viability assay.

[23] = system: NCI-H1703; format: functional, cell-based; conditions: Homo sapiens;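 note: growth inhibition of NCI-H1703 cells, read out via a cell viability assay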
Description: SANGER: Inhibition of human NCI-H1703 cell growth in a cell viability assay.

[24] = system: NCI-H187; format: functional, cell-based, Homo sapiens; conditions: Homo sapiens, NCI-H187;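 note: growth inhibition of NCI-H187 cells, read out as cell viability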
Description: SANGER: Inhibition of human NCI-H187 cell growth in a cell viability assay.

[25] = system: NCI-H2052; format: functional, cell-based; conditions: Homo sapiens;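 note: growth inhibition of NCI-H2052 cells, read out with a cell viability assay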
Description: SANGER: Inhibition of human NCI-H2052 cell growth in a cell viability assay.

[26] = system: NCI-H2342; format: functional, cell-based; conditions: Homo sapiens;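 note: growth inhibition of the cancer cell line, determined with a cell viability assay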
Description: SANGER: Inhibition of human NCI-H2342 cell growth in a cell viability assay.

[27] = system: NCI-H292; format: functional, cell-based; conditions: Homo sapiens;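 note: growth inhibition of NCI-H292 cells, read out with a cell viability assay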
Description: SANGER: Inhibition of human NCI-H292 cell growth in a cell viability assay.

[28] = system: NCI-H441; format: functional, cell-based; conditions: Homo sapiens;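 note: growth inhibition of NCI-H441 cells, read out with a cell viability assay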
Description: SANGER: Inhibition of human NCI-H441 cell growth in a cell viability assay.

[29] = system: NCI-H520; format: functional, cell-based; conditions: Homo sapiens;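 note: growth inhibition of NCI-H520 cells, measured by a cell viability assay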
Description: SANGER: Inhibition of human NCI-H520 cell growth in a cell viability assay.

[30] = system: NCI-H522; format: functional, cell-based; conditions: Homo sapiens;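 note: cell viability assay measuring growth inhibition of human NCI-H522 cells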
Description: SANGER: Inhibition of human NCI-H522 cell growth in a cell viability assay.

[31] = system: OE33; format: functional, cell-based; conditions: Homo sapiens;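 note: growth inhibition of human OE33 cells, measured by a cell viability assay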
Description: SANGER: Inhibition of human OE33 cell growth in a cell viability assay.

[32] = system: OVCAR-5; format: functional, cell-based; conditions: Homo sapiens;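 note: growth inhibition of human OVCAR-5 cells, read out with a cell viability assay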
Description: SANGER: Inhibition of human OVCAR-5 cell growth in a cell viability assay.

[33] = system: PC-14; format: functional, cell-based; conditions: Homo sapiens;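 note: cell viability assay measuring inhibition of PC-14 cell growth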
Description: SANGER: Inhibition of human PC-14 cell growth in a cell viability assay.

[34] = system: PC-3; format: functional, cell-based; conditions: Homo sapiens;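 note: cell viability assay measuring growth inhibition of PC-3 cells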
Description: SANGER: Inhibition of human PC-3 cell growth in a cell viability assay.

[35] = system: PFSK-1; format: functional, cell-based; conditions: Homo sapiens;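 note: cell viability assay measuring how strongly compounds suppress growth of human PFSK-1 cells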
Description: SANGER: Inhibition of human PFSK-1 cell growth in a cell viability assay.

[36] = system: RD; format: functional, cell-based; conditions: Homo sapiens
Description: SANGER: Inhibition of human RD cell growth in a cell viability assay.

[37] = system: RERF-LC-MS; format: functional, cell-based; conditions: Homo sapiens;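 note: growth inhibition of human RERF-LC-MS cells, read out by a cell viability assay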
Description: SANGER: Inhibition of human RERF-LC-MS cell growth in a cell viability assay.

[38] = system: RPMI-6666; format: functional, cell-based, Homo sapiens; conditions: Homo sapiens, RPMI-6666
Description: SANGER: Inhibition of human RPMI-6666 cell growth in a cell viability assay.

[39] = system: SCC-4; format: functional, cell-based; conditions: Homo sapiens;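 note: growth inhibition of human SCC-4 cells, read out as cell viability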
Description: SANGER: Inhibition of human SCC-4 cell growth in a cell viability assay.

[40] = system: SK-HEP1; format: functional, cell-based, SK-HEP-1; conditions: Homo sapiens;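 note: cell viability readout used to quantify reduction in proliferation of human SK-HEP-1 cells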
Description: SANGER: Inhibition of human SK-HEP-1 cell growth in a cell viability assay.

[41] = system: SNU-387; format: functional, cell-based; conditions: Homo sapiens
Description: SANGER: Inhibition of human SNU-387 cell growth in a cell viability assay.

[42] = system: SUP-T1; format: functional, cell-based, Homo sapiens; conditions: Homo sapiens, SUP-T1;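 note: growth inhibition of human SUP-T1 cells, read out as cell viability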
Description: SANGER: Inhibition of human SUP-T1 cell growth in a cell viability assay.

[43] = system: SW1463; format: functional, cell-based; conditions: Homo sapiens;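 note: growth inhibition of SW1463 cells, determined with a cell viability assay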
Description: SANGER: Inhibition of human SW1463 cell growth in a cell viability assay.

[44] = system: SW948; format: functional, cell-based; conditions: Homo sapiens;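 note: growth inhibition of SW948 cells, read out with a cell viability assay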
Description: SANGER: Inhibition of human SW948 cell growth in a cell viability assay.

[45] = system: 23132-87; format: functional, cell-based; conditions: Homo sapiens
Description: SANGER: Inhibition of human 23132-87 cell growth in a cell viability assay.

[46] = system: AN3-CA; format: functional, cell-based; conditions: Homo sapiens;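 note: growth inhibition of human AN3-CA cells measured by a cell viability assay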
Description: SANGER: Inhibition of human AN3-CA cell growth in a cell viability assay.

[47] = system: AU565; format: functional, cell-based; conditions: Homo sapiens;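 note: cell viability assay measuring growth inhibition of human AU565 cells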
Description: SANGER: Inhibition of human AU565 cell growth in a cell viability assay.

[48] = system: BC-3; format: functional, cell-based, Homo sapiens; conditions: Homo sapiens, BC-3;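 note: cell viability assay measuring growth inhibition of human BC-3 cells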
Description: SANGER: Inhibition of human BC-3 cell growth in a cell viability assay.

[49] = system: BL-41; format: functional, cell-based; conditions: Homo sapiens;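 note: growth inhibition of human BL-41 cells, read out with a cell viability assay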
Description: SANGER: Inhibition of human BL-41 cell growth in a cell viability assay.

[50] = system: C3A; format: functional, cell-based; conditions: Homo sapiens;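 note: growth inhibition of C3A human cells, quantified with a cell viability readout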
Description: SANGER: Inhibition of human C3A cell growth in a cell viability assay.

[51] = system: CA46; format: functional, cell-based, Homo sapiens; conditions: Homo sapiens, CA46;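 note: growth inhibition of human CA46 cells, read out by a cell viability assay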
Description: SANGER: Inhibition of human CA46 cell growth in a cell viability assay.

[52] = system: CAL-54; format: functional, cell-based; conditions: Homo sapiens;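 note: growth inhibition of CAL-54 cells, read out by a viability measurement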
Description: SANGER: Inhibition of human CAL-54 cell growth in a cell viability assay.

[53] = system: CAL-85-1; format: functional, cell-based; conditions: Homo sapiens;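 note: growth inhibition of human CAL-85-1 cells, read out with a cell viability assay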
Description: SANGER: Inhibition of human CAL-85-1 cell growth in a cell viability assay.

[54] = system: U-698-M; format: functional, cell-based, Homo sapiens; conditions: Homo sapiens, U-698-M
Description: SANGER: Inhibition of human U-698-M cell growth in a cell viability assay.

[55] = system: UACC-893; format: functional, cell-based; conditions: Homo sapiens
Description: SANGER: Inhibition of human UACC-893 cell growth in a cell viability assay.

[56] = system: UMC-11; format: functional, cell-based; conditions: Homo sapiens;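 note: growth inhibition of UMC-11 cells, read out with a cell viability assay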
Description: SANGER: Inhibition of human UMC-11 cell growth in a cell viability assay.

[57] = system: YAPC; format: functional, cell-based; conditions: Homo sapiens;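 note: growth inhibition of YAPC cells, measured with a cell viability assay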
Description: SANGER: Inhibition of human YAPC cell growth in a cell viability assay.

[58] = system: COLO-680N; format: functional, cell-based; conditions: Homo sapiens
Description: SANGER: Inhibition of human COLO-680N cell growth in a cell viability assay.

Cc1ccc(C(=O)Nc2ccc(CN3CCN(C)CC3)c(C(F)(F)F)c2)cc1C#Cc1cnc2cccnn12 [PONATINIB]
IC50 [1]: > 512 nM | IC50 [2]: > 512 nM | IC50 [3]: > 512 nM | IC50 [4]: > 512 nM | IC50 [5]: > 512 nM | IC50 [6]: > 512 nM | IC50 [7]: > 512 nM | IC50 [8]: > 512 nM | IC50 [9]: 2.17 nM | IC50 [10]: > 512 nM | IC50 [11]: 269 nM | IC50 [12]: > 512 nM | IC50 [13]: > 512 nM | IC50 [14]: > 512 nM | IC50 [15]: > 512 nM | IC50 [16]: > 512 nM | IC50 [17]: > 512 nM | IC50 [18]: > 512 nM | IC50 [19]: > 512 nM | IC50 [20]: 255 nM | IC50 [21]: > 512 nM | IC50 [22]: > 512 nM | IC50 [23]: 196 nM | IC50 [24]: > 512 nM | IC50 [25]: 315 nM | IC50 [26]: 186 nM | IC50 [27]: > 512 nM | IC50 [28]: > 512 nM | IC50 [29]: 177 nM | IC50 [30]: 453 nM | IC50 [31]: > 512 nM | IC50 [32]: > 512 nM | IC50 [33]: > 512 nM | IC50 [34]: > 512 nM | IC50 [35]: > 512 nM | IC50 [36]: > 512 nM | IC50 [37]: > 512 nM | IC50 [38]: > 512 nM | IC50 [39]: > 512 nM | IC50 [40]: 334 nM | IC50 [41]: > 512 nM | IC50 [42]: 99.8 nM | IC50 [43]: > 512 nM | IC50 [44]: > 512 nM | IC50 [45]: > 512 nM | IC50 [46]: 18.7 nM | IC50 [47]: > 512 nM | IC50 [48]: > 512 nM | IC50 [49]: > 512 nM | IC50 [50]: > 512 nM | IC50 [51]: 175 nM | IC50 [52]: > 512 nM | IC50 [53]: 179 nM | IC50 [54]: > 512 nM | IC50 [55]: > 512 nM | IC50 [56]: > 512 nM | IC50 [57]: > 512 nM | IC50 [58]: > 512 nM
